In patent US20250332300A1 (priority 2024, published 2025) one finds Kd and IC50 data, which are given here for seven molecules.

Common to all, as to assay type: binding
The target of test [1] is T1, human HER2 (23-652) (Homo sapiens, UniProt P04626). In words: Surface plasmon resonance (SPR) for assessment of peptide affinity, human HER2. The arrangement: towards human HER2 (23-652) and mouse HER2 (23-653); made in house. A digest of the protocol: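 Binding kinetics fitted from sensorgrams with 280 s peptide association then 3000 s dissociation (30 uL/min), using HER2 (23-652) either directly immobilized (SA/CM5) or anti-Fc-captured; 3 M magnesium chloride used for regeneration.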
(In SPR one partner is held on a chip, and binding of the other changes the refractive index at the surface.)

Test [2] has as its target T2, mouse HER2 (23-653) (Mus musculus, UniProt P70424). Briefly: Surface plasmon resonance (SPR) for assessment of peptide affinity, mouse HER2. The arrangement: mouse HER2 (23-653) using a Cy5 labeled peptide as a probe; made in house. The text has this: Each protein was immobilized either onto a SA sensorchip (Cytiva, BR-1005-31) or CM5 sensorchip (Cytiva, BR-1005-30) to a density of 800-2000 RU.

Test [3] deals with T1, human HER2 (23-652). Briefly: TR-FRET competition assay for peptide potency, human HER2. Details: towards human HER2 (23-652) and mouse HER2 (23-653); made in house; host or cells: mammalian cells.
Test [4] has as its target T2, mouse HER2 (23-653). In words: TR-FRET competition assay for peptide potency, mouse HER2. Details: mouse HER2 (23-653) using a Cy5 labeled peptide as a probe; made in house; host or cells: mammalian cells. A general note: TR-FRET usually uses a lanthanide donor and a delayed reading to cut background.
[5] abbreviates: huHER2 TR-FRET IC50, TR-FRET competition with Cy5 labeled peptide probe, 0.1 nM human HER2, 24 h incubation.
[6] abbreviates: SPR, human HER2 extracellular domain, 25° C., 1:1 binding model, read-out: huHER2-SPR-ONC KD.
Where [7] appears, read: SPR, mouse HER2 extracellular domain, 25° C., 1:1 binding model, read-out: moHER2-SPR-ONC KD.
[8] abbreviates: TR-FRET competition with Cy5 labeled peptide probe, 0.1 nM mouse HER2, 24 h incubation, read-out: moHER2 TR-FRET IC50.

Molecules are shown by their SMILES. Structures can show the parent of a compound that is named as a salt. Where two headings read alike, the source gives them in different places. Starred links: 1 amine or outer side, 2 acyl side, 3 side chain; linkers in the order of their positions; H or OH if unused. Positions of bridges follow the written chain, without caps; N, C: chain ends. Non-standard residues stand in square brackets, D forms with d. Residues, ends and D or L forms follow the SMILES beside them. Trp(5-OH) = N[C@@H](Cc1c[nH]c2ccc(O)cc12)C(=O)O; NMePhe(4-F) = CN[C@@H](Cc1ccc(F)cc1)C(=O)O; X1 = O=C([C@H](Cc1cnn2ccccc12)N[*:1])[*:2]; NMehPhe = CN[C@@H](CCc1ccccc1)C(=O)O; NMeAoc(2) = CCCCCC[C@H](NC)C(=O)O; Aad = N[C@@H](CCCC(=O)O)C(=O)O; Gly(cPr) = N[C@H](C(=O)O)C1CC1; NMeK = CN[C@@H](CCCCN)C(=O)O; NMeDap = CN[C@@H](CN)C(=O)O; NMeC = CN[C@@H](CS)C(=O)O; NMeS = CN[C@@H](CO)C(=O)O A value given as a limit tells only on which side of the number the result lay.

The Kd is the free concentration of one partner at which half of the binding sites on the other are occupied at equilibrium, for simple one-to-one binding. Broadly, the IC50 is the midpoint of a concentration-inhibition curve. In the case of `CN1C(=O)[C@H](Cc2ccc(O)cc2)NC(=O)[C@@H](N)CCC(=O)NC[C@@H](C(=O)N(C)[C@@H](Cc2ccc(F)cc2)C(N)=O)N(C)C(=O)[C@H](C2CC2)NC(=O)[C@H](Cc2c[nH]c3ccccc23)NC(=O)[C@H](Cc2c[nH]c3ccc(O)cc23)NC(=O)[C@H](CO)N(C)C(=O)[C@H](CCc2ccccc2)N(C)C(=O)[C@@H]1CO` [Example A38, (3S,6S,9S,12S,15S,18S,21S,24S,27S)-9-((1H-indol-3-yl)methyl)-27-amino-N-((S)-1-amino-3-(4-fluorophenyl)-1-oxopropan-2-yl)-6-cyclopropyl-12-((5-hydroxy-1H-indol-3-yl)methyl)-24-(4-hydroxybenzyl)-15,21-bis(hydroxymethyl)-N,4,16,19,22-pentamethyl-5,8,11,14,17,20,23,26,30-nonaoxo-18-phenethyl-1,4,7,10,13,16,19,22,25-nonaazacyclotriacontane-3-carboxamide TFA salt] (H-EY[NMeS][NMehPhe][NMeS][Trp(5-OH)]W[Gly(cPr)][NMeDap][NMePhe(4-F)]-NH2; lactam 1-9), the Kd was determined as 46 nM in test [1] and 67 nM in test [2]. Besides, the IC50 in test [3] (setting [5]) was determined as 93 nM; in test [4] (moHER2 TR-FRET IC50, TR-FRET competition with Cy5 labeled peptide probe, 0.1 nM mouse HER2, 24 h incubation), 206 nM.

Take `CCCCCC[C@@H](C(N)=O)N(C)C(=O)[C@@H]1CNC(=O)CCC[C@H](NC(C)=O)C(=O)N[C@@H](Cc2ccc(O)cc2)C(=O)N[C@@H](CO)C(=O)N(C)[C@@H](CCc2ccccc2)C(=O)N(C)[C@@H](CCCCNC(C)=O)C(=O)N[C@@H](Cc2c[nH]c3ccc(O)cc23)C(=O)N[C@@H](Cc2c[nH]c3ccccc23)C(=O)N[C@@H](C2CC2)C(=O)N1C` [Example A13, (3S,6S,9S,12S,15S,18S,21S,24S,27S)-9-((1H-indol-3-yl)methyl)-27-acetamido-15-(4-acetamidobutyl)-N-((S)-1-amino-1-oxooctan-2-yl)-6-cyclopropyl-12-((5-hydroxy-1H-indol-3-yl)methyl)-24-(4-hydroxybenzyl)-21-(hydroxymethyl)-N,4,16,19-tetramethyl-5,8,11,14,17,20,23,26,31-nonaoxo-18-phenethyl-1,4,7,10,13,16,19,22,25-nonaazacyclohentriacontane-3-carboxamide] (Ac-[Aad]YS[NMehPhe][NMeK](Ac)[Trp(5-OH)]W[Gly(cPr)][NMeDap][NMeAoc(2)]-NH2; lactam 1-9): the Kd in test [1] (setting [6]) is 40 nM; in test [2] (setting [7]) it was 44 nM. Also, the IC50 turned out to be 46 nM in test [3] (read-out: huHER2 TR-FRET IC50) and 107 nM in test [4] (setting [8]).

Take `CC(=O)N[C@H]1CC(=O)NC[C@@H](C(=O)N(C)[C@@H](Cc2ccc(F)cc2)C(N)=O)N(C)C(=O)[C@H](C2CC2)NC(=O)[C@H](Cc2c[nH]c3ccccc23)NC(=O)[C@H](Cc2c[nH]c3ccc(O)cc23)NC(=O)[C@H](CO)N(C)C(=O)[C@H](CCc2ccccc2)N(C)C(=O)[C@H](CO)NC(=O)[C@H](Cc2ccc(O)cc2)NC1=O` [Example A28, (3S,6S,9S,12S,15S,18S,21S,24S,27S)-9-((1H-indol-3-yl)methyl)-27-acetamido-N-((S)-1-amino-3-(4-fluorophenyl)-1-oxopropan-2-yl)-6-cyclopropyl-12-((5-hydroxy-1H-indol-3-yl)methyl)-24-(4-hydroxybenzyl)-15,21-bis(hydroxymethyl)-N,4,16,19-tetramethyl-5,8,11,14,17,20,23,26,29-nonaoxo-18-phenethyl-1,4,7,10,13,16,19,22,25-nonaazacyclononacosane-3-carboxamide] (Ac-DYS[NMehPhe][NMeS][Trp(5-OH)]W[Gly(cPr)][NMeDap][NMePhe(4-F)]-NH2; lactam 1-9): the Kd in test [1] (setting [6]) is 309 nM; in test [2] (setting [7]), 421 nM. Also, the values for the IC50 in test [3] (read-out: huHER2 TR-FRET IC50) and in test [4] (setting [8]) were 223 nM and 413 nM, respectively.

As to `CN1C(=O)[C@H](CO)NC(=O)[C@H](Cc2ccc(O)cc2)NC(=O)[C@@H](N)CSSC[C@@H](C(=O)N(C)[C@@H](Cc2ccc(F)cc2)C(N)=O)N(C)C(=O)[C@H](C2CC2)NC(=O)[C@H](Cc2c[nH]c3ccccc23)NC(=O)[C@H](Cc2c[nH]c3ccc(O)cc23)NC(=O)[C@H](CO)N(C)C(=O)[C@@H]1CCc1ccccc1` [Example A54, (4R,7S,10S,13S,16S,19S,22S,25S,28R)-10-((1H-indol-3-yl)methyl)-28-amino-N—((S)-1-amino-3-(4-fluorophenyl)-1-oxopropan-2-yl)-7-cyclopropyl-13-((5-hydroxy-1H-indol-3-yl)methyl)-25-(4-hydroxybenzyl)-16,22-bis(hydroxymethyl)-N,5,17,20-tetramethyl-6,9,12,15,18,21,24,27-octaoxo-19-phenethyl-1,2-dithia-5,8,11,14,17,20,23,26-octaazacyclononacosane-4-carboxamide TFA salt] (H-CYS[NMehPhe][NMeS][Trp(5-OH)]W[Gly(cPr)][NMeC][NMePhe(4-F)]-NH2; disulfide 1-9), the figures for the Kd in test [1] and in test [2] (setting [7]) were 1710 nM and 5310 nM, respectively. Moreover, the IC50 in test [3] (setting [5]) and in test [4] (setting [8]) was > 1000 nM throughout.

Take `CC(=O)NCCCC[C@H]1C(=O)N[C@@H](Cc2c[nH]c3ccc(O)cc23)C(=O)N[C@@H](Cc2c[nH]c3ccccc23)C(=O)N[C@@H]([C@H](C)O)C(=O)N(C)[C@H](C(=O)N(C)[C@@H](Cc2ccc(F)cc2)C(=O)N[C@@H](CCCCNC(=O)N2CCN(CC(=O)O)CC2)C(=O)N[C@H](CCCCNC(=O)CN2CCN(CC(=O)O)CCN(CC(=O)O)CCN(CC(=O)O)CC2)C(N)=O)CNC(=O)CC[C@H](NC(C)=O)C(=O)N[C@@H](Cc2ccc(O)cc2)C(=O)N[C@@H](CO)C(=O)N(C)[C@@H](CCc2ccccc2)C(=O)N1C` [Example C23]: the figures for the Kd in test [1] (setting [6]) and in test [2] (setting [7]) were 47 nM and 39 nM, respectively. Further, the IC50 in test [3] (TR-FRET competition with Cy5 labeled peptide probe, 0.1 nM human HER2, 24 h incubation, read-out: huHER2 TR-FRET IC50) is 62 nM; in test [4] (setting [8]), 76 nM; in test [4] (value in parentheses (**): recalculated after further repetition, read-out: moHER2 TR-FRET IC50, recalculated value achieved after further repetition), 49 nM.

For `CC(=O)NCCCC[C@H]1C(=O)N[C@@H](Cc2c[nH]c3ccc(O)cc23)C(=O)N[C@@H](Cc2c[nH]c3ccccc23)C(=O)N[C@@H](C2CC2)C(=O)N(C)[C@H](C(=O)N(C)[C@@H](Cc2ccc(F)cc2)C(N)=O)CNC(=O)CCC[C@H](NC(C)=O)C(=O)N[C@@H](Cc2ccc(O)cc2)C(=O)N[C@@H](CO)C(=O)N(C)[C@@H](CCc2ccccc2)C(=O)N1C` [Example A5, (3S,6S,9S,12S,15S,18S,21S,24S,27S)-9-((1H-indol-3-yl)methyl)-27-acetamido-15-(4-acetamidobutyl)-N-((S)-1-amino-3-(4-fluorophenyl)-1-oxopropan-2-yl)-6-cyclopropyl-12-((5-hydroxy-1H-indol-3-yl)methyl)-24-(4-hydroxybenzyl)-21-(hydroxymethyl)-N,4,16,19-tetramethyl-5,8,11,14,17,20,23,26,31-nonaoxo-18-phenethyl-1,4,7,10,13,16,19,22,25-nonaazacyclohentriacontane-3-carboxamide] (Ac-[Aad]YS[NMehPhe][NMeK](Ac)[Trp(5-OH)]W[Gly(cPr)][NMeDap][NMePhe(4-F)]-NH2; lactam 1-9), the Kd in test [1] (setting [6]) is 0.5 nM; in test [2] (setting [7]), 0.6 nM. For the same molecule, the IC50 in test [3] (read-out: huHER2 TR-FRET IC50) came to 0.4 nM; in test [4] (setting [8]), 0.8 nM.

In the case of `CC(=O)N[C@H]1CCC(=O)NC[C@@H](C(=O)N(C)[C@@H](Cc2ccc(F)cc2)C(N)=O)N(C)C(=O)[C@H](C2CC2)NC(=O)[C@H](Cc2cnn3ccccc23)NC(=O)[C@H](Cc2c[nH]c3ccc(O)cc23)NC(=O)[C@H](CO)N(C)C(=O)[C@H](CCc2ccccc2)N(C)C(=O)[C@H](CO)NC(=O)[C@H](Cc2ccc(O)cc2)NC1=O` [Example A21, (3S,6S,9S,12S,15S,18S,21S,24S,27S)-27-acetamido-N-((S)-1-amino-3-(4-fluorophenyl)-1-oxopropan-2-yl)-6-cyclopropyl-12-((5-hydroxy-1H-indol-3-yl)methyl)-24-(4-hydroxybenzyl)-15,21-bis(hydroxymethyl)-N,4,16,19-tetramethyl-5,8,11,14,17,20,23,26,30-nonaoxo-18-phenethyl-9-(pyrazolo[1,5-a]pyridin-3-ylmethyl)-1,4,7,10,13,16,19,22,25-nonaazacyclotriacontane-3-carboxamide] (Ac-EYS[NMehPhe][NMeS][Trp(5-OH)][X1][Gly(cPr)][NMeDap][NMePhe(4-F)]-NH2; lactam 1-9), the Kd in test [1] (setting [6]) and in test [2] (setting [7]) was > 6000 nM each time. The IC50 in test [3] (read-out: huHER2 TR-FRET IC50) and in test [4] (setting [8]) was > 1000 nM in each case.
